Data from US10485235B2, “Aryloxypyrimidinyl ethers as herbicides” (FMC Corporation, priority 2015, dated 2019).

test system: foxtail, giant (giant foxtail, Setaria faberii); assay: Test A preemergence, giant foxtail; type: in vivo; settings: Preemergence, 125 g ai/ha; 0 to 100 scale (0 no effect, 100 complete control)
Method in brief: (§1)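 Test chemicals in a solvent/surfactant mixture were applied as a preemergence directed soil spray on seeded loam–sand, or postemergence to plants 2–10 cm tall at the one- to two-leaf stage. After roughly 10 days in a greenhouse, injury was visually rated versus untreated controls on a 0 (no effect) to 100 (complete control) scale.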

Row | Compound | Plant response rating, Foxtail, Giant
1 | Fc1cccc(Oc2ncc(Cl)cn2)c1OCCC(F)(F)F [Compound 29] | 70

same assay, conditions: Preemergence, 500 g ai/ha; 0 to 100 scale (0 no effect, 100 complete control)

Row | Compound | Plant response rating, Foxtail, Giant
2 | Fc1cccc(Oc2ncc(Cl)cn2)c1OCCC(F)(F)F [Compound 29] | 100

test system: wheat (Triticum aestivum); assay: Test A postemergence, wheat; type: in vivo; settings: 125 g ai/ha, postemergence; 0 to 100 scale, 0 is no effect, 100 is complete control; approximately 10 days
Method in brief: as §1

Row | Compound | Plant response rating, Wheat
3 | Fc1cccc(Oc2ncc(Cl)cn2)c1OCCC(F)(F)F [Compound 29] | 0

same assay, conditions: 500 g ai/ha, postemergence; 0 to 100 scale, 0 is no effect, 100 is complete control; approximately 10 days

Row | Compound | Plant response rating, Wheat
4 | Fc1cccc(Oc2ncc(Cl)cn2)c1OCCC(F)(F)F [Compound 29] | 20

test system: galium (catchweed bedstraw, Galium aparine); assay: Test A postemergence, galium; type: in vivo; settings: 125 g ai/ha, postemergence; 0 to 100 scale, 0 is no effect, 100 is complete control; approximately 10 days
Method in brief: as §1

Row | Compound | Plant response rating, Galium
5 | Fc1cccc(Oc2ncc(Cl)cn2)c1OCCC(F)(F)F [Compound 29] | 20

same assay, conditions: 500 g ai/ha, postemergence; 0 to 100 scale, 0 is no effect, 100 is complete control; approximately 10 days

Row | Compound | Plant response rating, Galium
6 | Fc1cccc(Oc2ncc(Cl)cn2)c1OCCC(F)(F)F [Compound 29] | 50

test system: ryegrass, Italian (Italian ryegrass, Lolium multiflorum); assay: Test A postemergence, Italian ryegrass; type: in vivo; settings: 125 g ai/ha, postemergence; 0 to 100 scale, 0 is no effect, 100 is complete control; approximately 10 days
Method in brief: as §1

Row | Compound | Plant response rating, Ryegrass, Italian
7 | Fc1cccc(Oc2ncc(Cl)cn2)c1OCCC(F)(F)F [Compound 29] | 0

same assay, conditions: 500 g ai/ha, postemergence; 0 to 100 scale, 0 is no effect, 100 is complete control; approximately 10 days

Row | Compound | Plant response rating, Ryegrass, Italian
8 | Fc1cccc(Oc2ncc(Cl)cn2)c1OCCC(F)(F)F [Compound 29] | 20

test system: barnyardgrass (Echinochloa crus-galli); assay: Test B flooded paddy test, barnyardgrass; type: in vivo; settings: 250 g ai/ha, Flood; visual rating after 13 to 15 days; scale 0 to 100, 0 is no effect, 100 is complete control
Method in brief: (§2)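 Visual ratings, 0 = no effect to 100 = complete control, versus controls after 13 to 15 days in greenhouse. Test compounds were added to paddy water kept 3 cm over the soil surface, on plants at 2-leaf stage.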

Row | Compound | Plant response rating, Barnyardgrass
9 | Fc1cccc(Oc2ncc(Cl)cn2)c1OCCC(F)(F)F [Compound 29] | 0

test system: blackgrass (Alopecurus myosuroides); assay: Test A postemergence, blackgrass; type: in vivo; settings: 125 g ai/ha, postemergence; 0 to 100 scale, 0 is no effect, 100 is complete control; approximately 10 days
Method in brief: as §1

Row | Compound | Plant response rating, Blackgrass
10 | Fc1cccc(Oc2ncc(Cl)cn2)c1OCCC(F)(F)F [Compound 29] | 0

same assay, conditions: 500 g ai/ha, postemergence; 0 to 100 scale, 0 is no effect, 100 is complete control; approximately 10 days

Row | Compound | Plant response rating, Blackgrass
11 | Fc1cccc(Oc2ncc(Cl)cn2)c1OCCC(F)(F)F [Compound 29] | 50

test system: barnyardgrass (Echinochloa crus-galli); assay: Test A preemergence, barnyardgrass; type: in vivo; settings: Preemergence, 125 g ai/ha; 0 to 100 scale (0 no effect, 100 complete control)
Method in brief: as §1

Row | Compound | Plant response rating, Barnyardgrass
12 | Fc1cccc(Oc2ncc(Cl)cn2)c1OCCC(F)(F)F [Compound 29] | 70

same assay, conditions: Preemergence, 500 g ai/ha; 0 to 100 scale (0 no effect, 100 complete control)

Row | Compound | Plant response rating, Barnyardgrass
13 | Fc1cccc(Oc2ncc(Cl)cn2)c1OCCC(F)(F)F [Compound 29] | 100

test system: barnyardgrass (Echinochloa crus-galli); assay: Test A postemergence, barnyardgrass; type: in vivo; settings: 125 g ai/ha, postemergence; 0 to 100 scale, 0 is no effect, 100 is complete control; approximately 10 days
Method in brief: as §1

Row | Compound | Plant response rating, Barnyardgrass
14 | Fc1cccc(Oc2ncc(Cl)cn2)c1OCCC(F)(F)F [Compound 29] | 20

same assay, conditions: 500 g ai/ha, postemergence; 0 to 100 scale, 0 is no effect, 100 is complete control; approximately 10 days

Row | Compound | Plant response rating, Barnyardgrass
15 | Fc1cccc(Oc2ncc(Cl)cn2)c1OCCC(F)(F)F [Compound 29] | 70

test system: ragweed (common ragweed, Ambrosia elatior); assay: Test A preemergence, ragweed; type: in vivo; settings: Preemergence, 125 g ai/ha; 0 to 100 scale (0 no effect, 100 complete control)
Method in brief: as §1

Row | Compound | Plant response rating, Ragweed
16 | Fc1cccc(Oc2ncc(Cl)cn2)c1OCCC(F)(F)F [Compound 29] | 0

same assay, conditions: Preemergence, 500 g ai/ha; 0 to 100 scale (0 no effect, 100 complete control)

Row | Compound | Plant response rating, Ragweed
17 | Fc1cccc(Oc2ncc(Cl)cn2)c1OCCC(F)(F)F [Compound 29] | 20

test system: rice (Oryza sativa); assay: Test B flooded paddy test, rice; type: in vivo; settings: 250 g ai/ha, Flood; visual rating after 13 to 15 days; scale 0 to 100, 0 is no effect, 100 is complete control
Method in brief: as §2

Row | Compound | Plant response rating, Rice
18 | Fc1cccc(Oc2ncc(Cl)cn2)c1OCCC(F)(F)F [Compound 29] | 0

test system: ducksalad (Heteranthera limosa); assay: Test B flooded paddy test, ducksalad; type: in vivo; settings: 250 g ai/ha, Flood; visual rating after 13 to 15 days; scale 0 to 100, 0 is no effect, 100 is complete control
Method in brief: as §2

Row | Compound | Plant response rating, Ducksalad
19 | Fc1cccc(Oc2ncc(Cl)cn2)c1OCCC(F)(F)F [Compound 29] | 50

test system: kochia (Kochia scoparia); assay: Test A postemergence, kochia; type: in vivo; settings: 125 g ai/ha, postemergence; 0 to 100 scale, 0 is no effect, 100 is complete control; approximately 10 days
Method in brief: as §1

Row | Compound | Plant response rating, Kochia
20 | Fc1cccc(Oc2ncc(Cl)cn2)c1OCCC(F)(F)F [Compound 29] | 40

same assay, conditions: 500 g ai/ha, postemergence; 0 to 100 scale, 0 is no effect, 100 is complete control; approximately 10 days

Row | Compound | Plant response rating, Kochia
21 | Fc1cccc(Oc2ncc(Cl)cn2)c1OCCC(F)(F)F [Compound 29] | 80

test system: pigweed (Amaranthus retroflexus); assay: Test A postemergence, pigweed; type: in vivo; settings: 125 g ai/ha, postemergence; 0 to 100 scale, 0 is no effect, 100 is complete control; approximately 10 days
Method in brief: as §1

Row | Compound | Plant response rating, Pigweed
22 | Fc1cccc(Oc2ncc(Cl)cn2)c1OCCC(F)(F)F [Compound 29] | 50

same assay, conditions: 500 g ai/ha, postemergence; 0 to 100 scale, 0 is no effect, 100 is complete control; approximately 10 days

Row | Compound | Plant response rating, Pigweed
23 | Fc1cccc(Oc2ncc(Cl)cn2)c1OCCC(F)(F)F [Compound 29] | 100

test system: sedge, umbrella (small-flower umbrella sedge, Cyperus difformis); assay: Test B flooded paddy test, umbrella sedge; type: in vivo; settings: 250 g ai/ha, Flood; visual rating after 13 to 15 days; scale 0 to 100, 0 is no effect, 100 is complete control
Method in brief: as §2

Row | Compound | Plant response rating, Sedge, Umbrella
24 | Fc1cccc(Oc2ncc(Cl)cn2)c1OCCC(F)(F)F [Compound 29] | 0

test system: pigweed (Amaranthus retroflexus); assay: Test A preemergence, pigweed; type: in vivo; settings: Preemergence, 125 g ai/ha; 0 to 100 scale (0 no effect, 100 complete control)
Method in brief: as §1

Row | Compound | Plant response rating, Pigweed
25 | Fc1cccc(Oc2ncc(Cl)cn2)c1OCCC(F)(F)F [Compound 29] | 100

same assay, conditions: Preemergence, 500 g ai/ha; 0 to 100 scale (0 no effect, 100 complete control)

Row | Compound | Plant response rating, Pigweed
26 | Fc1cccc(Oc2ncc(Cl)cn2)c1OCCC(F)(F)F [Compound 29] | 100

test system: ragweed (common ragweed, Ambrosia elatior); assay: Test A postemergence, ragweed; type: in vivo; settings: 125 g ai/ha, postemergence; 0 to 100 scale, 0 is no effect, 100 is complete control; approximately 10 days
Method in brief: as §1

Row | Compound | Plant response rating, Ragweed
27 | Fc1cccc(Oc2ncc(Cl)cn2)c1OCCC(F)(F)F [Compound 29] | 0

same assay, conditions: 500 g ai/ha, postemergence; 0 to 100 scale, 0 is no effect, 100 is complete control; approximately 10 days

Row | Compound | Plant response rating, Ragweed
28 | Fc1cccc(Oc2ncc(Cl)cn2)c1OCCC(F)(F)F [Compound 29] | 10

test system: kochia (Kochia scoparia); assay: Test A preemergence, kochia; type: in vivo; settings: Preemergence, 125 g ai/ha; 0 to 100 scale (0 no effect, 100 complete control)
Method in brief: as §1

Row | Compound | Plant response rating, Kochia
29 | Fc1cccc(Oc2ncc(Cl)cn2)c1OCCC(F)(F)F [Compound 29] | 40

same assay, conditions: Preemergence, 500 g ai/ha; 0 to 100 scale (0 no effect, 100 complete control)

Row | Compound | Plant response rating, Kochia
30 | Fc1cccc(Oc2ncc(Cl)cn2)c1OCCC(F)(F)F [Compound 29] | 100

test system: corn (Zea mays); assay: Test A postemergence, corn; type: in vivo; settings: 125 g ai/ha, postemergence; 0 to 100 scale, 0 is no effect, 100 is complete control; approximately 10 days
Method in brief: as §1

Row | Compound | Plant response rating, Corn
31 | Fc1cccc(Oc2ncc(Cl)cn2)c1OCCC(F)(F)F [Compound 29] | 0

same assay, conditions: 500 g ai/ha, postemergence; 0 to 100 scale, 0 is no effect, 100 is complete control; approximately 10 days

Row | Compound | Plant response rating, Corn
32 | Fc1cccc(Oc2ncc(Cl)cn2)c1OCCC(F)(F)F [Compound 29] | 10

test system: foxtail, giant (giant foxtail, Setaria faberii); assay: Test A postemergence, giant foxtail; type: in vivo; settings: 125 g ai/ha, postemergence; 0 to 100 scale, 0 is no effect, 100 is complete control; approximately 10 days
Method in brief: as §1

Row | Compound | Plant response rating, Foxtail, Giant
33 | Fc1cccc(Oc2ncc(Cl)cn2)c1OCCC(F)(F)F [Compound 29] | 20

same assay, conditions: 500 g ai/ha, postemergence; 0 to 100 scale, 0 is no effect, 100 is complete control; approximately 10 days

Row | Compound | Plant response rating, Foxtail, Giant
34 | Fc1cccc(Oc2ncc(Cl)cn2)c1OCCC(F)(F)F [Compound 29] | 80

test system: ryegrass, Italian (Italian ryegrass, Lolium multiflorum); assay: Test A preemergence, Italian ryegrass; type: in vivo; settings: Preemergence, 125 g ai/ha; 0 to 100 scale (0 no effect, 100 complete control)
Method in brief: as §1

Row | Compound | Plant response rating, Ryegrass, Italian
35 | Fc1cccc(Oc2ncc(Cl)cn2)c1OCCC(F)(F)F [Compound 29] | 10

same assay, conditions: Preemergence, 500 g ai/ha; 0 to 100 scale (0 no effect, 100 complete control)

Row | Compound | Plant response rating, Ryegrass, Italian
36 | Fc1cccc(Oc2ncc(Cl)cn2)c1OCCC(F)(F)F [Compound 29] | 70
